# Reference: paper PMC8641298 (ACS infectious diseases, 2020)
# What was measured:
# [1] = HeLa cytotoxicity; format: cell-based; details: human, HeLa cells
# [2] = test system: adult S. mansoni; assay: WormAssay, average adult worm motility; format: cell-based, Schistosoma mansoni; details: 5 h; for WormAssay (average adult worm movement ± SD): DMSO control 104.1 ± 24.4; for EC50: Schistosoma mansoni, read-out: EC50 of paralysis measured by WormAssay
# [3] = HEK293 cytotoxicity; format: cell-based; details: human
# [4] = test system: S. mansoni adults; assay: In vitro phenotypic screen of S. mansoni adults; format: cell-based, Schistosoma mansoni; details: for Phenotypic descriptors, adults 5 h / Phenotypic descriptors, adults 24 h / Phenotypic descriptors, adults 48 h: assays performed at 10 μM (footnote d)
# [5] = test system: S. mansoni somules; assay: In vitro phenotypic screen of S. mansoni somules; format: cell-based, Schistosoma mansoni
# [6] = test system: acetylated α-tubulin in HEK293 cells; assay: HEK293 MT-stabilization assay; format: cell-based; details: 4 h
# [7] = HEK293 cells (method text: HEK 293T)
# [8] = assays performed at 10 μM (footnote d)
SMILES,CC50 at 48 h [1],WormAssay (average adult worm movement ± SD) ([2]; 5 μM),EC50 [2],"CC50 at 48 h [3, 7]","Phenotypic descriptors, adults (5 μM) 5 h [4]","Phenotypic descriptors, adults (5 μM) 24 h [4]","Phenotypic descriptors, adults (5 μM) 48 h [4]","Phenotypic descriptors, somules (1 μM) 24 h [5]","Phenotypic descriptors, somules (1 μM) 48 h [5]","Phenotypic descriptors, somules (10 μM) 24 h [5]","Phenotypic descriptors, somules (10 μM) 48 h [5]","WormAssay (average adult worm movement ± SD) [2, 8]","Phenotypic descriptors, adults 5 h [4]","Phenotypic descriptors, adults 24 h [4]","Phenotypic descriptors, adults 48 h [4]",Fold-change in acetylated α-tubulin ([6]; 10 μM),CC50 at 48 h [3],Fold-change in acetylated α-tubulin (significance) ([6]; either 1 or 10 μM)
"CC(C)[C@@H](C)Nc1nc(-c2cccs2)nc(Cl)c1-c1c(F)cc(F)cc1F [Compound 28, (R)-6-chloro-N-(3-methylbutan-2-yl)-2-(thiophen-2-yl)-5-(2,4,6-trifluorophenyl)pyrimidin-4-amine]",17.4 ± 2 µM,2.9 ± 8.8,~1 µM,26.8 µM,"I, on sides","I, on sides","I, on sides","R, I","R, I","R, I","R, I",–,–,–,–,–,–,–
"O=C(C1CCCCC1)N1CC(=O)N2CCc3ccccc3C2C1 (stereo not shown) [PZQ, praziquantel, reference compound]",–,1.8 ± 5.1,–,–,–,–,–,–,–,–,–,–,–,–,–,–,–,–
"Fc1cc(F)c(-c2cnc(-c3cccs3)nc2Cl)c(F)c1 [Compound 32, 4-chloro-2-(thiophen-2-yl)-5-(2,4,6-trifluorophenyl)pyrimidine]",–,78.0 ± 20.1,–,–,N,N,N,N,N,"R, S",N,–,–,–,–,–,–,–
"C[C@H](Nc1nc(-c2ccco2)nc(Cl)c1-c1c(F)cc(F)cc1F)C(F)(F)F [Compound 24, (S)-6-chloro-2-(furan-2-yl)-5-(2,4,6-trifluorophenyl)-N-(1,1,1-trifluoropropan-2-yl)pyrimidin-4-amine]",–,–,–,–,–,–,–,N,N,N,"Deg, unc",56.0 ± 21.5^d,S^d,"Unc, on sides^d","S, dark, on sides^d",2.7 ± 0.2 (10 μM) fold,–,–
"CNCCCOc1cc(F)c(-c2c(Cl)nc3ncnn3c2N[C@@H](C)C(F)(F)F)c(F)c1 [Compound 12, cevipabulin, reference compound]",–,–,–,–,–,–,–,–,–,–,–,–,–,–,–,–,0.028 µM,–
"C[C@H](Nc1nc(-c2cccs2)ncc1-c1c(F)cc(F)cc1F)C(F)(F)F [Compound 26, (S)-2-(thiophen-2-yl)-5-(2,4,6-trifluorophenyl)-N-(1,1,1-trifluoropropan-2-yl)pyrimidin-4-amine]",> 100 µM,–,–,> 50 µM,–,–,–,"R, S",R,"R, S","R, S",11.0 ± 14.7^d,S^d,"Unc, on sides^d","S, dark, on sides^d",–,–,NS^e
"CC(C)[C@H](C)Nc1nc(-c2cccs2)nc(Cl)c1-c1c(F)cc(F)cc1F [Compound 29, (S)-6-chloro-N-(3-methylbutan-2-yl)-2-(thiophen-2-yl)-5-(2,4,6-trifluorophenyl)pyrimidin-4-amine]",8.78 ± 1.39 µM,5.0 ± 11.5,~1 µM,29.1 µM,"I, on sides","I, on sides","I, on sides","R, S","R, S","R, I","R, I",–,–,–,–,–,–,–
